Results on 1 molecule are retold here after patent US20170135981A1, “Method for Suppressing Glucagon Secretion of an SGLT2 Inhibitor” (AstraZeneca AB, priority 2014, published 2017).

This assay relates to glucagon secretion. As to the kind of experiment: Plasma glucagon during a liquid meal tolerance test (MTT) at week 24, radioimmunoassay, randomized 24-week study. It counts as in vivo, human. Particulars: summary of Table 1, added to metformin. As to the method:
At the beginning of a 4-week lead-in period, all patients were switched to the nearest metformin XR dose (1,500-2,000 mg/day) for the lead-in period and for the duration of the 24-week treatment period. Patients were then randomized to receive saxagliptin 5 mg/day and dapagliflozin 10 mg/day plus metformin (SAXA+DAPA+MET), saxagliptin 5 mg/day and placebo plus metformin (SAXA+MET), or dapagliflozin 10 mg/day and placebo plus metformin (DAPA+MET) for 24 weeks. Patients were prohibited from receiving other antidiabetic medications (except for open-label rescue medications) during the screening and treatment periods. Postprandial glucose (PPG) was assessed at baseline and week 24 following the administration of a liquid meal tolerance test (MTT, 360-375 kcal; protein, 14-28.2 g; fat, 10.5-14 g; carbohydrates 42-45 g; sugars as a component of carbohydrates, 16.8-22 g, investigation-site dependent). […] The mean change from baseline in the area under the curve from 0 to 180 minutes (AUC0-180 min) was calculated for glucagon obtained during the MTT. Plasma glucagon was measured by radioimmunoassay (LINCO Research, St. Charles, Mo.). AUC0-180 min was calculated based on the trapezoidal rule from model-based estimates of the mean at each time point, including observations prior to rescue. […]

Take `CCOc1ccc(Cc2cc([C@@H]3O[C@H](CO)[C@@H](O)[C@H](O)[C@H]3O)ccc2Cl)cc1` [dapagliflozin]: the “effect on glucagon levels (in words)” value is on record as “increased compared to control”.
